Measurements from patent US8853203B2, “Diazepinone derivatives” (Novartis AG, priority 2012, dated 2014).

How the values were obtained:
[1] = target: human mGluR5a receptors (Homo sapiens (Human), UniProt P41594); assay: inhibition of glutamate-induced elevation of intracellular calcium in L(tk-) cells expressing human mGluR5a; format: cell-based; conditions: for IC50: glutamate-induced intracellular calcium elevation, L(tk-) cells expressing human mGluR5a, read-out: mGluR5 IC50
In short: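 Compounds tested for inhibition of the glutamate-induced rise in intracellular calcium concentration in L(tk-) cells stably expressing human mGluR5a.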

[2] = target: human mGluR1 (Homo sapiens (Human), UniProt Q13255); assay: mGluR1 antagonism, L-glutamate induced intracellular calcium increase (FLIPR) in CHO cells stably expressing human mGluR1; format: cell-based; conditions: L-glutamate induced intracellular calcium, CHO cells expressing human mGluR1, FLIPR
human mGluR1, sequence (Q13255 19-1194): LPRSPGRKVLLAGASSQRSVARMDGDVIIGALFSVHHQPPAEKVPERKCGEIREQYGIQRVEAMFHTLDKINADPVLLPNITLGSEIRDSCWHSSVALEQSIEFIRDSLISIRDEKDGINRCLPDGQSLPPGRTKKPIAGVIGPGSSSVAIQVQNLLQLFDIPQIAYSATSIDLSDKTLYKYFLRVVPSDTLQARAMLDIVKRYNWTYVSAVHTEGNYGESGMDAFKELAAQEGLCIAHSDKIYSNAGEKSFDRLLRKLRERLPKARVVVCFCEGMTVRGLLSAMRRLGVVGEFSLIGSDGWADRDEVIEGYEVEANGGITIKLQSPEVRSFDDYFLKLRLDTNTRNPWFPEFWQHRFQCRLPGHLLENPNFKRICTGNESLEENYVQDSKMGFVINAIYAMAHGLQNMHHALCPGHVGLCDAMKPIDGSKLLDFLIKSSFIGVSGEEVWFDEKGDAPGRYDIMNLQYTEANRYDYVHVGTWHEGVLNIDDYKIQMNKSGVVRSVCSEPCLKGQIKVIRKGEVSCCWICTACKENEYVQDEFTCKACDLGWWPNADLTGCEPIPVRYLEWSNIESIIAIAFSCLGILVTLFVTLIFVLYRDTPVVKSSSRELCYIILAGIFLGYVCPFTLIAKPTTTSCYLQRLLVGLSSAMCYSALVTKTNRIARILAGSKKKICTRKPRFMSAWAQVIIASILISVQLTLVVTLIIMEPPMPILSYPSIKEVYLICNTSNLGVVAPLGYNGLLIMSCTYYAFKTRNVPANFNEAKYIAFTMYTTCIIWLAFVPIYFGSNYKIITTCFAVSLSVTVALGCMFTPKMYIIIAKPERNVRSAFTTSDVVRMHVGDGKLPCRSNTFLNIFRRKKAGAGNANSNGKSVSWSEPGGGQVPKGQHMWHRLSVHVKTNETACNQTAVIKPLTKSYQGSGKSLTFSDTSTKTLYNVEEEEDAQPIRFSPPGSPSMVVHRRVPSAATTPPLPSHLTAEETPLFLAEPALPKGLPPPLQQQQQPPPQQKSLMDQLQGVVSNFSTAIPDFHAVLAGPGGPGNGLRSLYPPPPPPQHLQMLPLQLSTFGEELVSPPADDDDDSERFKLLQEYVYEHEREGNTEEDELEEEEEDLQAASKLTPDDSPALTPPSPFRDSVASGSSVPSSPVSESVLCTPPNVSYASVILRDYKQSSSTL

human mGluR5a receptors, sequence (P41594 other isoform, or with tags, fused parts or gaps): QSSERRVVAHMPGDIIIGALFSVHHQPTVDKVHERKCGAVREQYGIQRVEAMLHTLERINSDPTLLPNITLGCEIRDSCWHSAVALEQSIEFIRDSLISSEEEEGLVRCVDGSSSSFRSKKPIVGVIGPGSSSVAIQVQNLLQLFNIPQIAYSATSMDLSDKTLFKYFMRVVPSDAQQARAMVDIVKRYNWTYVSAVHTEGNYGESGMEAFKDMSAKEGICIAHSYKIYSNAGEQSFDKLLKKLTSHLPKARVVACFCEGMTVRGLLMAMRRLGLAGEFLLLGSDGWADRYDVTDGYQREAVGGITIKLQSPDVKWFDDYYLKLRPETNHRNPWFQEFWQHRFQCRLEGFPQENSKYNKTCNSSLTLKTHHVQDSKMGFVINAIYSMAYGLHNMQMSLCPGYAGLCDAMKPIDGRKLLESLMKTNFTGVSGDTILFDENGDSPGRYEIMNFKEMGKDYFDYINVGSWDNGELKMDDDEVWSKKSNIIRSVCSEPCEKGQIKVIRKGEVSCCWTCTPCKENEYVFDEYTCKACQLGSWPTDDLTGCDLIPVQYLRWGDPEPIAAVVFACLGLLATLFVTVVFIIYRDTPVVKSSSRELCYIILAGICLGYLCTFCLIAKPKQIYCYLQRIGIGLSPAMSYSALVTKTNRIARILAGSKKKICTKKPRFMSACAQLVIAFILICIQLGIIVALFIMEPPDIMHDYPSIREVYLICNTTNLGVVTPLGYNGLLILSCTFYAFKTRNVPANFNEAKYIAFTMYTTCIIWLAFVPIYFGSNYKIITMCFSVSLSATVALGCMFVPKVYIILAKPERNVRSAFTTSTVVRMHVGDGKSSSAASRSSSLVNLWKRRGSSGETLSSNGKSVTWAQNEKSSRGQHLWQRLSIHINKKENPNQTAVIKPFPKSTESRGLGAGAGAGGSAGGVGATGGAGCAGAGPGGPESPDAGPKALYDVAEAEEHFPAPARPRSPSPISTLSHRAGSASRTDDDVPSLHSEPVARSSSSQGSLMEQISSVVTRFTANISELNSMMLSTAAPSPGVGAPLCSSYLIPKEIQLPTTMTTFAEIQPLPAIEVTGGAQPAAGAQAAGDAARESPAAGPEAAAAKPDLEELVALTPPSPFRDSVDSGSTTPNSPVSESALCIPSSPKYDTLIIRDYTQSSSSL

Structure (SMILES)	IC50 [1] [nM]	IC50 [2] [nM]	inhibition at 2 µM ([1]; LTK, read-out: mGluR5 % inhibition at 2 μM) [%]
O=C1CN=C(n2cnc(C(F)(F)F)c2)C=C2c3cccc(I)c3CCN12 [Example 63, 9-iodo-2-(4-(trifluoromethyl)-1H-imidazol-1-yl)-7,8-dihydro-[1,4]diazepino[7,1-a]isoquinolin-5(4H)-one]	535	3200	–
O=C1CN=C(n2cnc(C3(O)COC3)c2)C=C2c3cccc(-c4ccc(F)nc4)c3CCN12 [Example 106c, 9-(6-fluoropyridin-3-yl)-2-(4-(3-hydroxyoxetan-3-yl)-1H-imidazol-1-yl)-7,8-dihydro-[1,4]diazepino[7,1-a]isoquinolin-5(4H)-one]	1090	> 10000	–
COc1cccc(C2=NCC(=O)N3CCc4c(Br)cccc4C3=C2)c1 [Example 20, 9-bromo-2-(3-methoxyphenyl)-7,8-dihydro-[1,4]diazepino[7,1-a]isoquinolin-5(4H)-one]	1200	2800	–
Cc1cn(C2=NCC(=O)N3CCc4c(cccc4-c4cnc(C)o4)C3=C2)cn1 [Example 99a, 2-(4-methyl-1H-imidazol-1-yl)-9-(2-methyloxazol-5-yl)-7,8-dihydro-[1,4]diazepino[7,1-a]isoquinolin-5(4H)-one]	77	> 10000	–
COCc1cn(C2=NCC(=O)N3CCc4c(cc(F)cc4C4CC4)C3=C2)cn1 [Example 99k, 9-cyclopropyl-11-fluoro-2-(4-(methoxymethyl)-1H-imidazol-1-yl)-7,8-dihydro-[1,4]diazepino[7,1-a]isoquinolin-5(4H)-one]	3	561	–
COCCOCc1cccc2c1CCN1C(=O)CN=C(c3cccc(OC)c3)C=C21 [Example 44, 9-((2-methoxyethoxy)methyl)-2-(3-methoxyphenyl)-7,8-dihydro-[1,4]diazepino[7,1-a]isoquinolin-5(4H)-one]	1600	> 10000	–
COc1cc(C2=NCC(=O)N3CCc4c(cccc4-c4ccccn4)C3=C2)ccn1 [Example 50, 2-(2-methoxypyridin-4-yl)-9-(pyridin-2-yl)-7,8-dihydro-[1,4]diazepino[7,1-a]isoquinolin-5(4H)-one]	46	> 10000	–
CCc1cn(C2=NCC(=O)N3CCc4c(cccc4-c4ncco4)C3=C2)cn1 [Example 74, 2-(4-ethyl-1H-imidazol-1-yl)-9-(oxazol-2-yl)-7,8-dihydro-[1,4]diazepino[7,1-a]isoquinolin-5(4H)-one]	22	1200	–
CC1=C2c3cccc(-c4cc(C)no4)c3CCN2C(=O)CN=C1n1cnc(C2CC2)c1 [Example 107, 2-(4-cyclopropyl-1H-imidazol-1-yl)-1-methyl-9-(3-methylisoxazol-5-yl)-7,8-dihydro-[1,4]diazepino[7,1-a]isoquinolin-5(4H)-one]	835	> 10000	–
O=C1CN=C(n2cnc(C3CCC3)c2)C=C2c3cccc(-n4cccn4)c3CCN12 [Example 69, 2-(4-cyclobutyl-1H-imidazol-1-yl)-9-(1H-pyrazol-1-yl)-7,8-dihydro-[1,4]diazepino[7,1-a]isoquinolin-5(4H)-one]	20	> 10000	–
O=C1CN=C(n2cnc(C3CC3)c2)C=C2c3cccc(-c4cnco4)c3CCN12 [Example 109, 2-(4-cyclopropyl-1H-imidazol-1-yl)-9-(oxazol-5-yl)-7,8-dihydro-[1,4]diazepino[7,1-a]isoquinolin-5(4H)-one]	10	1800	–
O=C1CN=C(n2cnc(CF)c2)C=C2c3cccc(C4CC4)c3CCN12 [Example 99m, 9-cyclopropyl-2-(4-(fluoromethyl)-1H-imidazol-1-yl)-7,8-dihydro-[1,4]diazepino[7,1-a]isoquinolin-5(4H)-one]	2	672	–
CCc1cn(C2=NCC(=O)N3CCc4c(cccc4C4(F)CCC4)C3=C2)cn1 [Example 113, 2-(4-ethyl-1H-imidazol-1-yl)-9-(1-fluorocyclobutyl)-7,8-dihydro-[1,4]diazepino[7,1-a]isoquinolin-5(4H)-one]	120	2300	–
O=C1CN=C(c2cccs2)C=C2c3cccc(F)c3CCN12 [Example 19, 9-fluoro-2-(thiophen-2-yl)-7,8-dihydro-[1,4]diazepino[7,1-a]isoquinolin-5(4H)-one]	4500	800	–
O=C1CN=C(n2cnc(C3CC3)c2)C=C2c3cccc(-c4ccc(F)nc4F)c3CCN12 [Example 99, 2-(4-cyclopropyl-1H-imidazol-1-yl)-9-(2,6-difluoropyridin-3-yl)-7,8-dihydro-[1,4]diazepino[7,1-a]isoquinolin-5(4H)-one]	83	> 2000	–
COc1cc(C2=NCC(=O)N3CCc4c(cccc4N4CCOCC4)C3=C2)ccn1 [Example 22, 2-(2-methoxypyridin-4-yl)-9-morpholino-7,8-dihydro-[1,4]diazepino[7,1-a]isoquinolin-5(4H)-one]	71	> 10000	–

Further lines, results first:

IC50 [1] [nM]	IC50 [2] [nM]	inhibition at 2 µM ([1]; LTK, read-out: mGluR5 % inhibition at 2 μM) [%]	Structure (SMILES)
2	1500	–	CC(O)c1cn(C2=NCC(=O)N3CCc4c(cccc4C4CC4)C3=C2)cn1 (stereo not shown) [Example 129, 9-cyclopropyl-2-(4-(1-hydroxyethyl)-1H-imidazol-1-yl)-7,8-dihydro-[1,4]diazepino[7,1-a]isoquinolin-5(4H)-one]
270	> 10000	–	O=C1CN=C(n2cnc(C3CC3)c2)C=C2c3ccnc(-c4ccc(F)nc4)c3CCN12 [Example 110, 2-(4-cyclopropyl-1H-imidazol-1-yl)-9-(6-fluoropyridin-3-yl)-7,8-dihydro-[1,4]diazepino[7,1-a][2,6]naphthyridin-5(4H)-one]
5	1100	–	CO[C@@H](C)c1cn(C2=NCC(=O)N3CCc4c(cccc4C4CC4)C3=C2)cn1 [Example 122, (S)-9-cyclopropyl-2-(4-(1-methoxyethyl)-1H-imidazol-1-yl)-7,8-dihydro-[1,4]diazepino[7,1-a]isoquinolin-5(4H)-one]
198	> 10000	–	O=C1CN=C(n2cnc(C3CC3)n2)C=C2c3cccc(-c4cccc(F)n4)c3CCN12 [Example 134, 2-(3-cyclopropyl-1H-1,2,4-triazol-1-yl)-9-(6-fluoropyridin-2-yl)-7,8-dihydro-[1,4]diazepino[7,1-a]isoquinolin-5(4H)-one]
273	> 2000	–	COCc1cn(C2=NCC(=O)N3CCc4c(OC(C)C)cccc4C3=C2)cn1 [Example 142, 9-isopropoxy-2-(4-(methoxymethyl)-1H-imidazol-1-yl)-7,8-dihydro-[1,4]diazepino[7,1-a]isoquinolin-5(4H)-one]
93	> 10000	–	O=C1CN=C(n2cnc(C3CC3)c2)C=C2c3ccc(F)c(-c4cnc(F)nc4)c3CCN12 [Example 140]
5	3300	–	CCC(=O)c1cccc2c1CCN1C(=O)CN=C(n3cnc(C4CCC4)c3)C=C21 [Example 124, 2-(4-cyclobutyl-1H-imidazol-1-yl)-9-propionyl-7,8-dihydro-[1,4]diazepino[7,1-a]isoquinolin-5(4H)-one]
18	> 10000	–	C=C(C)c1cccc2c1CCN1C(=O)CN=C(n3cnc([C@@H](C)OC)c3)C=C21 [Example 118, (R)-2-(4-(1-methoxyethyl)-1H-imidazol-1-yl)-9-(prop-1-en-2-yl)-7,8-dihydro-[1,4]diazepino[7,1-a]isoquinolin-5(4H)-one]
–	> 10000	57	O=C1CN=C(n2cnc(C(F)F)c2)C=C2c3ccnc(C4CC4)c3CCN12 [Example 110d, 9-cyclopropyl-2-(4-(difluoromethyl)-1H-imidazol-1-yl)-7,8-dihydro-[1,4]diazepino[7,1-a][2,6]naphthyridin-5(4H)-one]
11	511	–	COc1cn(C2=NCC(=O)N3CCc4c(cccc4C4CC4)C3=C2)cn1 [Example 123d, 9-cyclopropyl-2-(4-methoxy-1H-imidazol-1-yl)-7,8-dihydro-[1,4]diazepino[7,1-a]isoquinolin-5(4H)-one]
